Experimental data taken from patent publication US20050042291A1, “Diffusion layer modulated solids” (priority 2003, published 2005).
≈ marks a conversion by molar mass, not a printed value. Structures can show the parent of a compound that is named as a salt. Where two headings read alike, the source gives them in different places. Blank lines part the entries; values can stand above or below the compound they belong to.

Legend:
[1] = Solubility; format: physicochemical; details: water, pH 6, water
[2] = Rat oral bioavailability of tipranavir disodium spray dried powders; format: in vivo; details: plasma, 20 mg/kg
Description: HPLC analysis of tipranavir in the rat plasma samples following administration of the various tipranavir disodium spray dried powders was conducted using an RP 8 column (Zorbax, DuPont) with a mobile phase consisting of methanolaqueous 0.05 M formate buffer, pH 4 ([…]).
The rat oral bioavailability of tipranavir disodium spray dried powders as well as the parent tipranavir disodium bulk drug were administered by intubation of the powders using a group of 7-8 rats (250-290 g) obtained from Taconic (Germantown, N.Y.). Intubation was achieved using a 10 cm (4 inch) section of Teflon tubing, […], containing a piece of cheese (American, fat free) inserted into the bottom of the tubing. The desired tipranavir disodium powdered bulk drug was placed into the tube and the tube was inserted into the stomach of the rat. The drug was displaced from the Teflon tubing and into the stomach by passing 2 ml of water through the tubing. The dose was 20 mg/kg in all cases.
The blood samples were processed with precipitation of the proteins with acetonitrile followed by centrifugation. The samples were assayed as described above.

[3] = Intrinsic dissolution rate of co-compressed pellets, fiber optic automated rotating disk dissolution method; format: physicochemical; details: for Percent dissolved in 60 minutes at pH 6: pH 6 (0.01 M phosphate) with 0.6% SLS
Description: The 0.48 cm ( 3/16 inch) HSS rod was inserted into the die to a distance of 1.9 cm (¾ inch), leaving 0.64 (¼ inch) for placement of 20±1 mg of the drug or drug mixture into the 0.48 cm ( 3/16 inch) diameter hole.
After adding the drug, the punch (or HSS rod) was inserted into the die and the entire die assembly was placed into a 3-bolt holder that was used to hold a 0.64 cm (¼ inch) SS base plate firmly against the powder bed during compression in the die. Compression of the powder was achieved on a Carver press using a stepwise increase in the force up to 4450 newtons (1000 pounds force) (i.e., 255 MPa (37000 psi)) and then a progressive decrease in pressure as described in the following. A force of 1110 newtons (250 pounds force) was applied for approximately 10 seconds and the pressure was removed. This was repeated at 2220 newtons (500 pounds force), 3330 newtons (750 pounds force), and 4450 newtons (1,000 pounds force). The 4450 newtons (1000 pounds force) (i.e., 255 MPa (37000 psi)) was applied again and maintained for 1 minute. The pressure was decreased stepwise by simply lowering the pressure and then holding it at 3330 newtons (750 pounds force) for 10 seconds and repeating this at 2220 newtons (500 pounds force), 1110 newtons (250 pounds force) and, finally, the pressure was removed.
The die and holder was removed from the Carver press and the punch (or HSS rod) was twisted to loosen the rod and to allow the pellet to relax or expand from the backside. After a three minute (minimum) relaxation period, the set-screw on the HSS rod was firmly secured to the die.
The entire punch and die assembly containing the drug pellet with one face of the drug pellet exposed was removed as a unit from the holder and the intrinsic dissolution rate was determined as described below.
The HSS rod in the die containing the drug compact with one face of the drug pellet exposed was attached to an electric motor with a fixed speed of 300 revolutions per minute (rpm). The die was rotated (300 rpm) while the die (containing the drug pellet) was lowered at t=0 into the center of the dissolution vessel consisting of a jacketed 800 mL beaker (Pyrex, No.1000) containing 500 mL of the desired de-gassed (house vacuum, 3 minutes) dissolution medium maintained at 37±0.5° C. The dissolution medium consisted of either dilute HCl (0.01, 0.001 or 0.0001 N HCl) or pH 6, 0.01 M phosphate containing 0.6% SLS (sodium lauryl sulfate). The die was positioned such that the drug compact was approximately 6.4 cm (2.5 inches) from the bottom of the 500 mL dissolution beaker and approximately the same distance from the liquid surface. Continuous monitoring by ultraviolet (UV) spectroscopy was conducted by the fiber optic UV automated dissolution method or samples were taken automatically by the HPLC sampling method as described below.
The Fiber Optic Dissolution System. The fiber optic UV automated dissolution system employed an Ocean Optics PC Model 1000 fiber optic spectrophotometer connected to a 120 mHz Pentium computer. The dissolution process was monitored continuously at 290 nm with the fiber optic probe with 5-10 data points taken per minute. The data was processed automatically with a Visual Basic application program that allowed the data to be collected automatically from the spectrophotometer.
The delavirdine mesylate intrinsic dissolution rate profile was plotted in Excel and the intrinsic dissolution rate was calculated automatically by the program. The dissolution period was usually 15 minutes, but could be as short as approximately 1 minute, or as long as a few hours.
Calculation of the Intrinsic Dissolution Rate.

- solubility [1]: 5 to 10 µg/mL (≈ 8.3 to 16.6 µM)
SMILES: CCC[C@@]1(CCc2ccccc2)CC(O)=C([C@H](CC)c2cccc(NS(=O)(=O)c3ccc(C(F)(F)F)cn3)c2)C(=O)O1 [tipranavir]

- AUC(0-inf) ([2]; fasted, read-out: AUCInf, fasted): 23400 ng·h/mL
- AUC(0-inf) ([2]; fed, read-out: AUCInf, fed): 45800 ng·h/mL
SMILES: CCC[C@@]1(CCc2ccccc2)CC(O)=C([C@H](CC)c2cccc(NS(=O)(=O)c3ccc(C(F)(F)F)cn3)c2)C(=O)O1 [Tipranavir Disodium bulk drug, tipranavir disodium]

- IDR, pH 2 0.01 N HCl ([3]; pH 2 0.01 N HCl, 37° C., 300 rpm, observed): 220 micrograms · cm^−2 · sec^−1
- Percent of pellet dissolved at pH 2 ([3]; pH 2 (0.01 N) HCl, 37° C., dissolution then stops): approximately 60%
- Percent dissolved in 60 minutes at pH 6 ([3]; 20 mg pellet, listed as Delavirdine mesylate alone): approximately 2%
- Percent dissolved in 60 minutes at pH 6 ([3]; 20 mg pellet, listed as pure delavirdine mesylate): less than 1%
- IDR, pH 6 with 0.5% SLS ([3]; pH 6 with 0.5% SLS, 37° C., 300 rpm, observed): 2 micrograms · cm^−2 · sec^−1
- Percent dissolved in less than 10 minutes at pH 6 ([3]; pH 6 with 0.6% SLS, less than 10 minutes, 20 mg pellet): less than 1%
SMILES: CC(C)Nc1cccnc1N1CCN(C(=O)c2cc3cc(NS(C)(=O)=O)ccc3[nH]2)CC1 [Delavirdine Mesylate, delavirdine mesylate]
